Experimental data published in PubChem BioAssay AID330 (DTP/NCI, 2004).
Several values for one entry are separate records, joined by “and”; a condition that tells them apart may be missing. Identical values can stand only once. Toxic doses and inconclusive results are not listed.

Tested on: P388 leukemia ip, CD2F1 mice, survival T/C
Assay: NCI In Vivo Anticancer Drug Screen. Data for tumor model P388 Leukemia (intraperitoneal) in CD2F1 (CDF1) mice
Conditions: endpoint: median survival time, higher = longer survival
How it was run: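 Mice carrying the transplanted tumor received test compound or vehicle. Survival was recorded in each group, and the value is the treated-group measurement divided by that of the vehicle-treated control group.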

[1] = dose: 25.0 mg/kg/injection, schedule: Q01DX009 (ip), vehicle: saline with Tween-80
[2] = dose: 50.0 mg/kg/injection, schedule: Q01DX009 (ip), vehicle: saline with Tween-80
[3] = dose: 100.0 mg/kg/injection, schedule: Q01DX009 (ip), vehicle: saline with Tween-80
[4] = dose: 60.0 mg/kg/injection, schedule: Q01DX005 (ip), vehicle: Klucel (hydroxypropylcellulose) (HPC)
[5] = dose: 120.0 mg/kg/injection, schedule: Q01DX005 (ip), vehicle: Klucel (hydroxypropylcellulose) (HPC)
[6] = dose: 240.0 mg/kg/injection, schedule: Q01DX005 (ip), vehicle: Klucel (hydroxypropylcellulose) (HPC)
[7] = dose: 50.0 mg/kg/injection, schedule: Q01DX005 (ip), vehicle: saline with Tween-80
[8] = dose: 100.0 mg/kg/injection, schedule: Q01DX005 (ip), vehicle: saline with Tween-80
[9] = dose: 200.0 mg/kg/injection, schedule: Q01DX005 (ip), vehicle: saline with Tween-80
[10] = dose: 50.0 mg/kg/injection, schedule: Q01DX005 (ip), vehicle: Klucel (hydroxypropylcellulose) (HPC)
[11] = dose: 100.0 mg/kg/injection, schedule: Q01DX005 (ip), vehicle: Klucel (hydroxypropylcellulose) (HPC)

For `COc1cccc2c1C(=O)c1c(O)c3c(c(O)c1C2=O)CC(O)(C(O)CO)CC3OC1CC(N2CCOCC2C#N)C(O)C(C)O1` (stereo not given), the T/C (dose: 0.2 mg/kg/injection, schedule: Q04DX003 (ip), vehicle: water) was 176 % of control, the T/C (dose: 0.8 mg/kg/injection, schedule: Q04DX003 (ip), vehicle: water) was 89 % of control and the T/C (dose: 6.25 micrograms/kg/injection, schedule: Q04DX003 (ip), vehicle: water) was 101 % of control. For the same molecule, the T/C (dose: 12.5 micrograms/kg/injection, schedule: Q04DX003 (ip), vehicle: water) was 107 % of control and 113 % of control, the T/C (dose: 25.0 micrograms/kg/injection, schedule: Q04DX003 (ip), vehicle: water) was 106 % of control and 117 % of control and the T/C (dose: 50.0 micrograms/kg/injection, schedule: Q04DX003 (ip), vehicle: water) was 119 % of control and 120 % of control. For the same molecule, the T/C (dose: 100.0 micrograms/kg/injection, schedule: Q04DX003 (ip), vehicle: water) was 124 % of control and the T/C (dose: 200.0 micrograms/kg/injection, schedule: Q04DX003 (ip), vehicle: water) was 124 % of control.

For `COc1cc(CC(C)N)ccc1O` (stereo not given), the T/C (dose: 12.5 mg/kg/injection, schedule: Q01DX009 (ip), vehicle: saline with Tween-80) was 100 % of control, the T/C [1] was 99 % of control and the T/C [2] was 104 % of control. The T/C [3] was 95 % of control.

With `CC1=CC(OC2C=C(C)C(=O)O2)OC1=O` (stereo not given) the T/C (dose: 100.0 mg/kg/injection, schedule: Q04DX002 (ip), vehicle: saline) was 100 % of control, the T/C (dose: 200.0 mg/kg/injection, schedule: Q04DX002 (ip), vehicle: saline) was 100 % of control and the T/C (dose: 400.0 mg/kg/injection, schedule: Q04DX002 (ip), vehicle: saline) was 104 % of control.

With `CCOC(=O)NN(C(=O)OCC)C(C(C)=O)c1ccccc1` (stereo not given) the T/C [4] was 105 % of control, the T/C [5] was 103 % of control and the T/C [6] was 103 % of control.

In the case of `COc1ccc(OC)c(/C=N/N=C2\C(=O)Nc3c(Cl)cc(Cl)cc32)c1`, the T/C [7] is reported as 97 % of control, the T/C [8] is reported as 98 % of control and the T/C [9] is reported as 92 % of control.

In the case of `O=C1C(N2CCCCC2)=C(N2CC2)C(=O)C(N2CCCCC2)=C1N1CC1`, the T/C (dose: 2.5 mg/kg/injection, schedule: Q01DX009 (ip), vehicle: saline) is reported as 112 % of control and the T/C (dose: 10.0 mg/kg/injection, schedule: Q01DX009 (ip), vehicle: saline) is reported as 177 % of control.

`CCCCN=C(N=C(N)N)NCC` was tested, and the T/C (dose: 50.0 mg/kg/injection, schedule: Q01DX005 (ip), vehicle: saline) was 102 % of control and the T/C (dose: 100.0 mg/kg/injection, schedule: Q01DX005 (ip), vehicle: saline) was 102 % of control.

In the case of `COc1ccc(C2c3cc4c(cc3OC(O)C2C)OCO4)cc1` (stereo not given), the T/C [4] is reported as 106 % of control, the T/C [5] is reported as 100 % of control and the T/C [6] is reported as 101 % of control.

For `Clc1ccccc1C(Nc1nc2ccccc2s1)Nc1nc2ccccc2s1`, the T/C [10] was 102 % of control, the T/C [11] was 99 % of control and the T/C (dose: 200.0 mg/kg/injection, schedule: Q01DX005 (ip), vehicle: Klucel (hydroxypropylcellulose) (HPC)) was 99 % of control.

In the case of `COC(=O)C(NC(=O)C(NC(=O)c1c2nc3c(C(=O)NC(C(=O)NC(C(=O)OC)C(C)C)C(C)OC(C)=O)ccc(C)c3oc-2c(C)c(=O)c1N)C(C)OC(C)=O)C(C)C` (stereo not given), the T/C (dose: 0.05 mg/kg/injection, schedule: Q01DX009 (ip), vehicle: water) is reported as 107 % of control, the T/C (dose: 0.1 mg/kg/injection, schedule: Q01DX009 (ip), vehicle: water) is reported as 107 % of control and the T/C (dose: 0.2 mg/kg/injection, schedule: Q01DX009 (ip), vehicle: water) is reported as 100 % of control. For the same molecule, the T/C (dose: 0.4 mg/kg/injection, schedule: Q01DX009 (ip), vehicle: water) was 97 % of control, the T/C (dose: 0.8 mg/kg/injection, schedule: Q01DX009 (ip), vehicle: water) was 100 % of control and the T/C (dose: 1.6 mg/kg/injection, schedule: Q01DX009 (ip), vehicle: water) was 100 % of control and 88 % of control. For the same molecule, the T/C (dose: 3.2 mg/kg/injection, schedule: Q01DX009 (ip), vehicle: water) was 97 % of control, the T/C (dose: 6.4 mg/kg/injection, schedule: Q01DX009 (ip), vehicle: water) was 97 % of control and the T/C (dose: 12.8 mg/kg/injection, schedule: Q01DX009 (ip), vehicle: water) was 92 % of control.

With `COc1cc2c(cc1OC)NCC1COc3c(ccc(OC)c3OC)C1=N2` (stereo not given) the T/C [7] was 96 % of control, the T/C [8] was 88 % of control and the T/C [9] was 92 % of control.

`Cc1ccccc1SSCCN` was tested, and the T/C [10] was 103 % of control and the T/C [11] was 103 % of control.

`Cc1ccc(C)c(N=Nc2ccc(O)cc2)c1` was tested, and the T/C [1] was 100 % of control, the T/C [2] was 109 % of control and the T/C (dose: 50.0 mg/kg/injection, schedule: Q04DX003 (ip), vehicle: saline with Tween-80) was 104 % of control. The T/C [3] was 100 % of control and the T/C (dose: 100.0 mg/kg/injection, schedule: Q04DX003 (ip), vehicle: saline with Tween-80) was 100 % of control.
